Results reported in patent US20230218639A1, “USE OF OXYGENATED CHOLESTEROL SULFATES FOR TREATING NEUROLOGICAL CONDITIONS, NEURODEGENERATIVE DISEASES, AND ADDICTION” (Durect Corporation, priority 2020, published 2023).
Several values for one entry are separate records, joined by “and”; a condition that tells them apart may be missing. Equal values may be shown once. Read-outs that look alike come from different tables or passages of the source.

Columns and labels:
[1] = tested on: ^5mCpG in promoter regions, Huh-7 cells; experiment: Whole genome bisulfite sequencing (WGBS); format: cell-based, human
Method: Each sample, 2 μg, was sent to EpigenDx, Inc. (Hopkinton, Mass.) for analysis of global methylation bisulfite sequencing. The same samples, 6 μg, were sent to Novogene Co., Ltd (Tianjin, China) for analysis of whole genome bisulfite sequencing (WGBS). Total RNA was isolated using the Promega SV total RNA isolation system (Madison, Wis.) with DNase treatment. Each sample, 2 μg, was used for the first-strand cDNA synthesis as recommended by the manufacturer (Invitrogen, Carlsbad, Calif.). Real-time RT-PCR was performed using SYBR Green as the indicator on ABI 7500 Fast Real-Time PCR System (Applied Biosystems, Foster City, Calif.). Amplifications of β-actin or GAPDH were used as internal controls. Relative messenger RNA (mRNA) expression was quantified with the comparative cycle threshold (Ct) method using the primer set shown in Table 1.1 and was expressed as 2^−ΔΔCt.
Each sample, 5.2 μg of genomic DNA spiked with 26 ng lambda DNA, was fragmented by sonication to 200-300 bp with Covaris S220, followed by end repair and adenylation. Cytosine-methylated barcodes were ligated to sonicated DNA per the manufacturer's instructions. These DNA fragments were treated twice with bisulfite using EZ DNA Methylation-Gold™ Kit (Zymo Research) before the resulting single-strand DNA fragments were PCR amplified using KAPA HiFi Hot Start Uracil and Ready Mix (2×). Library concentration was quantified by Qubit® 2.0 Flurometer (Life Technologies, CA, USA) and quantitative PCR, and the insert size was assayed on an Agilent Bioanalyzer 2100 system.
The library preparations were sequenced on an Illumina Hiseq 2500/4000 or Novaseq platform and 125 bp/150 bp paired-end reads were generated. Image analysis and base calling were performed with Illumina CASAVA pipeline. Trimmomatic (Trimmomatic-0.36) software was used for quality control. Bismark software (version 0.16.3; Krueger F, 2011) was used to perform alignments of bisulfite-treated reads to a reference genome (−×700—dovetail). DSS software (23) was used to identify differentially methylated regions (DMRs). KOBAS software was used to test the statistical enrichment of DMR related genes in the Kyoto Encyclopedia of Genes and Genomes (KEGG) pathways.
Each sample (6 μg) was used for analysis of the whole genome bisulfite sequencing (WGBS).

[2] = rat, in vivo, po, 75 mg/kg
Method: Plasma concentrations were similar to those determined in the pharmacokinetics phase and were above the lower limit of quantitation.
Pancreas and liver concentrations ranged from 23,500 ng equiv./g to 28,100 ng equiv./g. Uveal tract and brain concentrations were lowest relative to the other tissues and were approximately 1000 ng equiv./g. Skin, thymus, prostate, and pituitary tissue concentrations were <3000 ng equiv./g. Remaining tissues had concentrations between 3600 ng-equiv./g and 10,700 ng equiv./g. […] As calculated using AUClast, the tissue:plasma ratios were highest for the small intestine (wall, 15.4) followed by the liver and adrenal gland at 6.96 and 6.64, respectively. High liver and small intestine concentrations are consistent with oral administration and biliary (fecal) excretion.

[3] = design: species or system rats; settings: rat, in vivo, po, 75 mg/kg
Method: The terminal elimination phase T1/2 was 27.3 hours.

DNMT3b = DNMT3b (Homo sapiens, UniProt Q9UBC3); experiment: DNMT3b activity assay (Lambda DNA substrate, ^3H-SAM); format: biochemical; settings: read-out: IC50, DNMT3b activity
Method: (§2) For the DNMT1 activity assay, the substrate solution, 0.001 mg/ml Poly(dI-dC):Poly(dI-dC) in 50 mM Tris-HCl, pH 7.5, 50 mM NaCl, 5 mM EDTA, 5 mM DTT, 1 mM PMSF, 5% glycerol, 0.01% Brij35, 1% DMSO was used. For the DNMT3a/3b activity assay, 0.0075 mg/ml Lambda DNA in 50 mM Tris-HCl, pH 7.5, 50 mM NaCl, 5 mM EDTA, 5 mM DTT, 1 mM PMSF, 5% glycerol, 1% DMSO, was used. The indicated DNMT1, DNMT3a, or DNMT3b was added to the appropriate substrate solution and gently mixed. […] The mixtures were first incubated for 15 min, then ^3H-SAM was added to the reaction mixture to initiate the reaction, and the mixture was incubated for 60 min at 30° C. Following incubation, the reaction mixture was finally transferred to filter-paper for detection of radioactivity counts.

DNMT3a = DNMT3a (Homo sapiens, UniProt Q9Y6K1); experiment: DNMT3a activity assay (Lambda DNA substrate, ^3H-SAM); format: biochemical; settings: read-out: IC50, DNMT3a activity
Method: as §2

[4] = Plasma pharmacokinetics, single intravenous dose; format: in vivo, Sprague Dawley rats; settings: single intravenous (bolus) dose 10 mg/kg
Method: (§1) Nine male Sprague Dawley rats (Group 1) were designated for the pharmacokinetic phase, 3 male Sprague Dawley rats (Group 2) for the excretion mass balance phase, and 7 male Sprague Dawley rats (Group 3) and 9 male Long Evans rats (Group 4) for the tissue distribution phase. All animals received a single intravenous dose of [^14C]-25HC3S at 10 mg/kg and a target radioactivity of 225 μCi/kg. Blood samples were collected from all Group 1 animals at approximately 0.083, 0.25, 0.5, 1, 2, 4, 8, 12, 24, 48, and 72 hours post-dose. Urine and feces were collected from all Group 2 animals periodically through 168 hours post-dose. […] Following blood collection, animals were euthanized by CO2 inhalation and carcasses frozen in a dry ice/hexane bath for processing by quantitative whole body autoradiography. Whole blood, plasma, urine, feces, cage rinse, and cage wash were analyzed for total radioactivity by liquid scintillation counting.

[5] = Metabolite profiling of plasma, urine, feces, intravenous dose; format: in vivo, Sprague Dawley rats; settings: intravenous 10 mg/kg
Method: as §1

[6] = Excretion mass balance, single intravenous dose; format: in vivo, Sprague Dawley rats; settings: intravenous 10 mg/kg, over 168 hours
Method: as §1

[7] = design: species or system rats; settings: Sprague Dawley, rat, in vivo, po, 75 mg/kg
DNMT1 = DNMT1 (Homo sapiens, UniProt P26358); experiment: DNMT1 activity assay (Poly(dI-dC) substrate, ^3H-SAM); format: biochemical; settings: read-out: IC50, DNMT-1 activity
DNMT1, sequence (P26358 whole entry): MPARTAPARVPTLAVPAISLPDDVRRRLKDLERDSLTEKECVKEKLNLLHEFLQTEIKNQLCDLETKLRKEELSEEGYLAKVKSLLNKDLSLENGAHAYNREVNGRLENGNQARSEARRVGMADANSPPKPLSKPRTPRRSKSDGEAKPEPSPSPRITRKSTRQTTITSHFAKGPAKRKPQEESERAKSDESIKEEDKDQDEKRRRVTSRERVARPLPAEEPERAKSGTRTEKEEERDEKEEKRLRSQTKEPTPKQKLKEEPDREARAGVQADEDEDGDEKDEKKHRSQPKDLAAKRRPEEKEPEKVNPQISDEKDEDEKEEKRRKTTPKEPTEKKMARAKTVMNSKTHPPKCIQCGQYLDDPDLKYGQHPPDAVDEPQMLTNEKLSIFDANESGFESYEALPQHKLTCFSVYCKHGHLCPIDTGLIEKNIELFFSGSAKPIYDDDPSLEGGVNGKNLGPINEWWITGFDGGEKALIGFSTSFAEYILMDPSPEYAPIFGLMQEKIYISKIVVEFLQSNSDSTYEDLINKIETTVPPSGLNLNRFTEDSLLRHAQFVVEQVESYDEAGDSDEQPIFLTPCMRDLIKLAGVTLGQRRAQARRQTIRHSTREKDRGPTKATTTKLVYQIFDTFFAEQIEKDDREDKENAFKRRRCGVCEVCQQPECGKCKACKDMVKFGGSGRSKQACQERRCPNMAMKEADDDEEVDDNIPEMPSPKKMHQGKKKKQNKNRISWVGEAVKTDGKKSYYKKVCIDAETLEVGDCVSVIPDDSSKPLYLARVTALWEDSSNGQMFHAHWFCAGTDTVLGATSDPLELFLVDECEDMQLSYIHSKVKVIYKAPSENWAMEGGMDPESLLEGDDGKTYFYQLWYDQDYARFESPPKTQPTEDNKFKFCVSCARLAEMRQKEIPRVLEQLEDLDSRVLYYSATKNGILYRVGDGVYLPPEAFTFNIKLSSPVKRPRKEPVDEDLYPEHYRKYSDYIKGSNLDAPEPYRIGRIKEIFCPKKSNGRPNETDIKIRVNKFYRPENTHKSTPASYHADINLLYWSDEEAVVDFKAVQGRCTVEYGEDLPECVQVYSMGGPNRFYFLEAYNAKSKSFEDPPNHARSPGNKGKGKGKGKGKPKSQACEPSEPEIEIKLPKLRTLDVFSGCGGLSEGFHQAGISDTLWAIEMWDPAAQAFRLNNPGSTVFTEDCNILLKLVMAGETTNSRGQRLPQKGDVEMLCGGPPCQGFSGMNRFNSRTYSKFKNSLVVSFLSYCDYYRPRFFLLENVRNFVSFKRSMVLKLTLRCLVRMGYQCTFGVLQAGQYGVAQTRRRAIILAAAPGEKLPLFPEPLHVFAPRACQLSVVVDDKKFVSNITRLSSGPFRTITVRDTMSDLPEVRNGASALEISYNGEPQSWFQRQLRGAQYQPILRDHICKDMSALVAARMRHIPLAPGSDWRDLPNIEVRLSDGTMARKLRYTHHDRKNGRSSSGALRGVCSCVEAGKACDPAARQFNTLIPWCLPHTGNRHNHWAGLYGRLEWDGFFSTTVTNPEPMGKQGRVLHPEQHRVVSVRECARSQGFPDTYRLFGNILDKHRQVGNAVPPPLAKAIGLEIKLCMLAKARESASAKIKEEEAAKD
Method: as §2

DNMT3a, sequence (Q9Y6K1 whole entry, looked up): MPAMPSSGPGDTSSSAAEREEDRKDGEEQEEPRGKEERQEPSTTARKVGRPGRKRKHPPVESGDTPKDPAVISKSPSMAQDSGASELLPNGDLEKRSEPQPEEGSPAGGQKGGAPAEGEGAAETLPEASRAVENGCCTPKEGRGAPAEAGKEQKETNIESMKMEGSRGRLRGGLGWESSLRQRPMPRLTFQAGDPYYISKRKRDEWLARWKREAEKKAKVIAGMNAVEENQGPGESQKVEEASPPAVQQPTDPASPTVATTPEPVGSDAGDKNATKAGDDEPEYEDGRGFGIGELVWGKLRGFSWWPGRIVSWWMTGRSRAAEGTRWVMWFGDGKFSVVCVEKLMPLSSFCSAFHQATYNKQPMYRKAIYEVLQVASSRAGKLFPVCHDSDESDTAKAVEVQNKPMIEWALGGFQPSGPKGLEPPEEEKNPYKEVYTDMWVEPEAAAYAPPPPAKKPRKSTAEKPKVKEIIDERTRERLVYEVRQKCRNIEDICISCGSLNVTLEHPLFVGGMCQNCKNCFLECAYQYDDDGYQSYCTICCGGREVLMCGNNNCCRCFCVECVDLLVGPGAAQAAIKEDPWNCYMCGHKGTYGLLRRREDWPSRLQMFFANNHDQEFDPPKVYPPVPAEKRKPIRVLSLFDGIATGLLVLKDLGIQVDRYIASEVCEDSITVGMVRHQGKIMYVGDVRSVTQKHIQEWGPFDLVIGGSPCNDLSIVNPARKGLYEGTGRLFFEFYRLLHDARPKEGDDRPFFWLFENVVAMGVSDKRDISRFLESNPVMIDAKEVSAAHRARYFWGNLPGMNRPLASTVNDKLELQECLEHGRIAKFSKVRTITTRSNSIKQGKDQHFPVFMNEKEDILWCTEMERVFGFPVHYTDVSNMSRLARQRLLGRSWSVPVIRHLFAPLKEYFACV

In the case of `C[C@H](CCCC(C)(C)O)[C@H]1CC[C@H]2[C@@H]3CC=C4C[C@@H](OS(=O)(=O)O)CC[C@]4(C)[C@H]3CC[C@]12C` [25HC3S, 5-Cholesten-3β, 25-diol 3-sulfate], the “genes with demethylated ^5mCpG in promoter regions, Calcium pathway” value ([1]; of 180 total genes) is reported as 19 genes, the “genes with demethylated ^5mCpG in promoter regions, cAMP pathway” value ([1]; of 200 total genes) is reported as 28 genes and the “genes with demethylated ^5mCpG in promoter regions, MAPK signaling pathway” value ([1]; of 257 total genes) is reported as 23 genes. For the same molecule, the “number of KEGG pathways enriched in hypomethylated genes” value ([1]; p<0.05, Huh-7, HG 72 hours, 25 μM 25HC3S 4 hours) was 79 KEGG pathways and 75 KEGG pathways, the “Cmax in small intestine (wall)” value [2] was 424,000 ng equiv./g and the “Cmax in stomach (wall)” value [2] was 204,000 ng equiv./g. The “tissue Tmax” value [2] was no more than 6 hours post-dose, the “tissues in which radioactivity was detected” value [2] was “all tissues except the eye (lens)” and the “whole blood AUClast” value [2] was 127,000 h ng equiv./g. For the same molecule, the “whole blood Cmax” value [2] was 2850 ng equiv/g, the “terminal elimination phase T1/2” value ([3]; Sprague Dawley) was 27.3 h and the “plasma AUClast” value [3] was 96,400 h·ng equiv./g. The “plasma Cmax” value [3] was 3800 ng equiv./g, the IC50 (DNMT3b) was 9.05 µM and the IC50 (DNMT3a) was 3.03 µM. The “plasma AUClast” value [4] was 27,900 h*ng-equiv./g, the “terminal elimination phase T1/2, plasma” value ([4]; PK phase) was 26.6 h and the “% of dose in feces” value ([5]; 0 to 48 hours post-dose) was 2 % of dose. The “share of exposure (AUC) to 25HC3S related radioactivity in plasma” value ([5]; up to 1 hour post-dose) was “approximately 54%”, the “dose recovered in urine, feces, and cage rinse” value [6] was “approximately 100.2%” and the “recovered radioactivity in feces” value [6] was 83.0%. The “dose recovered in urine, feces, and cage rinse” value [7] was “approximately 94.5%”, the “recovered radioactivity in feces” value [7] was 94.2% and the IC50 (DNMT1) was 4.04 µM.
